{"source": "patent US9433571B2", "about": "“Irritation mitigating polymers and uses therefor” (Lubrizol Advanced Materials, Inc., priority 2012, dated 2016)", "key": {"[1]": {"tested_on": "Epiderm™ Human Tissue Model (EPI-200)", "assay": "MTT tissue viability assay (MTT ET-50 protocol) on EpiDerm skin cultures", "conditions": "for Viability (%): relative to H2O negative control", "description": "Mitigation of skin irritancy induced by sodium dodecyl sulfate (SDS) surfactant dosed with the polymer of Example 11 is assessed in the Epiderm™ Human Tissue Model (EPI-200) bioassay conducted by MatTek Corporation, Ashland, Mass. The MatTek bioassay utilizes human derived epidermal keratinocytes (NHEK) which have been cultured to form a multilayered, highly differentiated model of the human epidermis.\nThe MTT tissue viability assay measures the NAD(P)H dependent microsomal enzyme reduction of MTT (and to a lesser extent, the succinate dehydrogenase reduction of MTT) after exposure to a treated skin culture test sample for various exposure times. The duration of exposure resulting in a 50% decrease in MTT conversion in test formulation treated EpiDerm™ cultures, relative to control cultures, is determined (ET-50).\nSkin tissue culture inserts (Cat. No. EPI-200) are pre-incubated in the wells of 6-well plates containing 0.9 ml of MatTek assay medium (Cat. No. EPI-100-ASY) for 1 hr. at 37° C. in a humidified atmosphere of 5% CO2 in air. The 6-well plates containing the tissue culture inserts are removed from the incubator and the assay media is aspirated from the wells and replaced by an additional aliquot of 0.9 ml of pre-warmed (37° C.) assay media. For each exposure time wells are then dosed (2 repetitions) with 100 μl of the test formulations set forth in Table 10 (3 tissue culture wells are dosed with 100 μl ultra-pure water as a negative control for each of the test candidates). In addition, 100 μl of a positive control formulation (1% Triton X-100 in ultrapure water) is dosed into tissue culture wells (3 repetitions for each exposure time), as well as 3 repetitions of ultrapure water as a negative control. The exposure times of the test formulations, negative control and positive control are set forth below.\nMTT assay plates are prepped by preparing a 24-well plate by adding 300 μl of MTT reagent solution to an appropriate number of wells to accommodate the test. The MTT reagent is utilized at a concentration of 1 mg/ml of MTT diluted in Dulbecco's Modified Eagle Medium (DMEM). The MTT/DMEM solution is centrifuged and decanted to remove any precipitate before use.\nAfter exposure times of 60 (1 hr.), 120 (2 hrs.) and 210 (3.5 hrs.) minutes to the test solutions, the tissue cultures are removed from the incubator and thoroughly rinsed (2 times) with Dulbecco's phosphate buffered saline (DPBS) to remove the test material. The negative control is exposed for 4 hours and the positive control is exposed for time periods of 4, 6, 8, and 10 hours. Any remaining rinse media is decanted from the top of the tissue cultures. Each tissue culture insert is transferred to an appropriately labeled well of the 24-well plate containing the MTT reagent solution and placed back in the incubator. After 30 minutes reaction with the MTT reagent, the tissue cultures are removed from the incubator. Each tissue culture insert is removed from its well and the bottom is gently blotted with a lab tissue. The inserts are immersed into a labeled 24-well extraction plate containing 2 ml of isopropanol extractant solution. The 24-well extraction plate is covered with aluminum foil (to protect the samples from light) and placed into a sealable plastic bag to minimize evaporation of the extractant solution. The sealed 24-well extraction plate is set on an orbital shaker and gently shaken for 2 hours at ambient room temperature (approximately 20° C.). […]"}, "eye": {"tested_on": "eye", "conditions": "cited from earlier work"}}, "note": "Like-named read-outs stand apart in the source and are kept apart here."}
{"molecule": "Triton X-100", "values": [{"measurement": "ET-50 (exposure time which reduces tissue viability to 50%)", "setting": "[1]", "value": 5.93, "unit": "h"}]}
{"molecule": "sodium laureth-12 sulfate", "values": [{"measurement": "eye irritation", "setting": "eye", "value": "almost completely non-irritating"}]}
{"molecule": "CCCCCCCCCCCCOS(=O)(=O)[O-].[Na+]", "note": "[Neat Surfactant, sodium dodecyl sulfate]", "values": [{"measurement": "Viability (%)", "setting": "[1]; exposure time 1 hr", "value": 92.3, "unit": "%"}, {"measurement": "Viability (%)", "setting": "[1]; exposure time 2 hr", "value": 32.3, "unit": "%"}, {"measurement": "Viability (%)", "setting": "[1]; exposure time 3.5 hr", "value": 16.6, "unit": "%"}, {"measurement": "ET-50 (exposure time which reduces tissue viability to 50%)", "setting": "[1]; interpolated between exposure times that bracket 50% viability, 100 μl formulation per tissue", "value": 1.63, "unit": "h"}]}
{"molecule": "CCCCCCCCCCCCOS(=O)(=O)[O-].[Na+]", "note": "[sodium lauryl sulfate]", "values": [{"measurement": "eye irritation", "setting": "eye; literature statement (Schoenberg, 1979)", "value": "significant eye irritation"}]}
